Series [1] concerns the target Receptor-interacting serine/threonine-protein kinase 2 (Homo sapiens) (UniProt O43353). Description: Inhibition of RIPK2 (unknown origin) at 1 uM relative to control.
The nature of series [2]: Metabolic stability in mouse liver microsomes assessed as parent compound remaining at 1 uM after 30 mins by LC-ESI-TOF/MS method. The series is classed as ADME, microsome. The settings on record: read-out: Stability.
The target of series [3] is Serine/threonine-protein kinase 17B (Homo sapiens) (UniProt O94768). Description: Inhibition of DRAK2 (unknown origin) at 1 uM relative to control.
Series [4] is described as follows: Oral bioavailability in cynomolgus monkey at 5 mg/kg by LC-ESI-TOF/MS or LC-ESI-MS/MS method. The series is classed as ADME, organism-based, Macaca fascicularis. The settings on record: in vivo.
The nature of a further series: physchem. The following applies: octanol/water.
A short description of series [5]: Metabolic stability in human liver microsomes assessed as parent compound remaining at 1 uM after 30 mins by LC-ESI-TOF/MS method. The series is classed as ADME, microsome. The settings on record: read-out: Stability. A general note: Liver microsomes are a subcellular fraction often used to study metabolism.
Series [6] is described as follows: Oral bioavailability in Balb/c mouse at 10 mg/kg by LC-ESI-TOF/MS or LC-ESI-MS/MS method. The series is classed as ADME, organism-based. The settings on record: in vivo.
Series [7] can be described thus: Oral bioavailability in Sprague-Dawley rat at 10 mg/kg by LC-ESI-TOF/MS or LC-ESI-MS/MS method. The series is classed as ADME, organism-based. The following applies: in vivo.
Series [8] concerns the target T1, Serine/threonine-protein kinase BRSK1 (Homo sapiens) (UniProt Q8TDC3).
T1 sequence (whole entry): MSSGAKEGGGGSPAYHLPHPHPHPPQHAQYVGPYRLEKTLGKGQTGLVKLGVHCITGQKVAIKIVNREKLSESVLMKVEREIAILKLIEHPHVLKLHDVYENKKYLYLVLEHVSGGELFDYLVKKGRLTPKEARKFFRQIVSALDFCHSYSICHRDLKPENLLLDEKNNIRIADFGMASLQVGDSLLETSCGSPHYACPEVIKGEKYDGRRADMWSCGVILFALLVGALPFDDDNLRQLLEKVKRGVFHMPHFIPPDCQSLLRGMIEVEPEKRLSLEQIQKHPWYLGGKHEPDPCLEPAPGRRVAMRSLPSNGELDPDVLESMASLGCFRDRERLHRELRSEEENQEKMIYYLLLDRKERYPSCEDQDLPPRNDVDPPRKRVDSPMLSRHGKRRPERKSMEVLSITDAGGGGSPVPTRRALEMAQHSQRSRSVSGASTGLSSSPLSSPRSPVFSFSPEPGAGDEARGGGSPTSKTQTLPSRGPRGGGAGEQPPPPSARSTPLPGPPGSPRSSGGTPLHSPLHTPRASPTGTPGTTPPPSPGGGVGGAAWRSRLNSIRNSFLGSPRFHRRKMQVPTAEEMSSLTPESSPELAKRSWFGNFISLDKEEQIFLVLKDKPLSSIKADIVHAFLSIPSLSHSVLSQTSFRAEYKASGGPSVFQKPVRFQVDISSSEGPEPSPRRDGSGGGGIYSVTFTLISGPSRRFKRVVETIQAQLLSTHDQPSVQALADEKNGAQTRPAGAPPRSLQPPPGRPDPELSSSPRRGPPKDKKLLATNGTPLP
Description: Inhibition of BRSK1 (unknown origin) at 1 uM relative to control.

Series [9] deals with Proto-oncogene tyrosine-protein kinase receptor Ret (Homo sapiens) (UniProt P07949). In words: Inhibition of RET (unknown origin) at 1 uM relative to control.
The next series is described as follows: in vitro. The following applies: human, Caco-2.
Series [10] addresses Dual specificity protein kinase CLK4 (Homo sapiens, UniProt Q9HAZ1). In words: Inhibition of CLK4 (unknown origin) at 1 uM relative to control.
The target of series [11] is Dual specificity tyrosine-phosphorylation-regulated kinase 3 (Homo sapiens) (UniProt O43781). In words: Inhibition of DYRK3 (unknown origin) at 1 uM relative to control.
Sequence of Dual specificity tyrosine-phosphorylation-regulated kinase 3 (Homo sapiens) (O43781 whole entry): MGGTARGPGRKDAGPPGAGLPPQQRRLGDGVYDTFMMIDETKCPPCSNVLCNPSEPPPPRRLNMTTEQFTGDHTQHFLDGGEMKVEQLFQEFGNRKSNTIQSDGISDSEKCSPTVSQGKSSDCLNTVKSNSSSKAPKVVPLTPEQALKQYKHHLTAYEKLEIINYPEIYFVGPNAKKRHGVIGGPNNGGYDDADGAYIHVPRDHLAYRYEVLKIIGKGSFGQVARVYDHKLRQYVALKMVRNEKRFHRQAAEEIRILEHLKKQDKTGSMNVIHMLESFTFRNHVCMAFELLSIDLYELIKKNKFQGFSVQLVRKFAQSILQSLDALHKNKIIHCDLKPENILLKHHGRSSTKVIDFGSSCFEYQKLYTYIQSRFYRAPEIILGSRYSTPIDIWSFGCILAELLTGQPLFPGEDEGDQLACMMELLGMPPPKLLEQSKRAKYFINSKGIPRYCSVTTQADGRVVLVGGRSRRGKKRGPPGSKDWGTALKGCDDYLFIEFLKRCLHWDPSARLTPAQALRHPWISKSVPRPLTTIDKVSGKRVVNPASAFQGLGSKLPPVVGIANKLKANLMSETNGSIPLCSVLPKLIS
The target in series [12] is TGF-beta receptor type-2 (Homo sapiens) (UniProt P37173). Description: Inhibition of TGFBR2 (unknown origin) at 1 uM relative to control.
Sequence of TGF-beta receptor type-2 (Homo sapiens) (P37173 whole entry): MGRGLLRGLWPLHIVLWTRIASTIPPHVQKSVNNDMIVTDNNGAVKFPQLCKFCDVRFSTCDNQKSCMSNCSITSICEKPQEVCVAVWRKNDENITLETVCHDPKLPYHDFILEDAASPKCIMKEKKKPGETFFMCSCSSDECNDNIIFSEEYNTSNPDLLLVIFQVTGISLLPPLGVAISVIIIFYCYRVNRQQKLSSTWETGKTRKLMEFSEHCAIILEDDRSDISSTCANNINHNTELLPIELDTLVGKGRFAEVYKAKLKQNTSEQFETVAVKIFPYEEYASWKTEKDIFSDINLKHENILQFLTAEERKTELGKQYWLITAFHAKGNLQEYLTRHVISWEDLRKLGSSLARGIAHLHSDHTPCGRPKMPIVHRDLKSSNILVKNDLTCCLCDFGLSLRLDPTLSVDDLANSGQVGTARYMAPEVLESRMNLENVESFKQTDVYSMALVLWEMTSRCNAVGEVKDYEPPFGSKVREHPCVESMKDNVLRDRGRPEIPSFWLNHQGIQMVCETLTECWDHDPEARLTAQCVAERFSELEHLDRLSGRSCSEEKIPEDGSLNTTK
A short description of series [13]: Metabolic stability in rat liver microsomes assessed as parent compound remaining at 1 uM after 30 mins by LC-ESI-TOF/MS method. The series is classed as ADME, microsome. The settings on record: read-out: Stability.
The target in series [14] is T2, Serine/threonine-protein kinase 17A (Homo sapiens) (UniProt Q9UEE5).
T2 sequence (whole entry): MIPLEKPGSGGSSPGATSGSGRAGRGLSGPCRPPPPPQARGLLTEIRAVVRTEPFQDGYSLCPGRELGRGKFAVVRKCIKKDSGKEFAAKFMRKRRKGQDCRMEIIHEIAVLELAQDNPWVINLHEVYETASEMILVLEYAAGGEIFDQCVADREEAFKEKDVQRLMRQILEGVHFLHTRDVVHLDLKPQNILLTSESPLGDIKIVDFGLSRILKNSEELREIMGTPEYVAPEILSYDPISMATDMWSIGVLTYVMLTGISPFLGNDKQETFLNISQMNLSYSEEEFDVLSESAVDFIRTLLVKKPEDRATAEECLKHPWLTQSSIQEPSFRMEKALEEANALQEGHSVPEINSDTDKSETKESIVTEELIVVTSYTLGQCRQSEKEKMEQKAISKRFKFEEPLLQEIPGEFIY
Description: Inhibition of DRAK1 (unknown origin) at 1 uM relative to control.

Series [15] has as its target Leucine-rich repeat serine/threonine-protein kinase 2 (Homo sapiens) (UniProt Q5S007). Description: Inhibition of LRRK2 (unknown origin) at 1 uM relative to control.
A short description of series [16]: Oral bioavailability in Beagle dog at 5 mg/kg by LC-ESI-TOF/MS or LC-ESI-MS/MS method. The series is classed as ADME, organism-based, Canis lupus familiaris. The settings on record: in vivo.
Series [17] has as its target Vascular endothelial growth factor receptor 2 (Homo sapiens) (UniProt P35968). In words: Inhibition of KDR (unknown origin) at 1 uM relative to control.
Series [18] concerns the target Ribosomal protein S6 kinase alpha-6 (Homo sapiens) (UniProt Q9UK32). In words: Inhibition of RSK4 (unknown origin) at 1 uM relative to control.
The nature of series [19]: Oral bioavailability in Beagle dog at 3 mg/kg by LC-ESI-TOF/MS or LC-ESI-MS/MS method. The series is classed as ADME, organism-based, Canis lupus familiaris. The following applies: in vivo.
Series [20] deals with Receptor-type tyrosine-protein kinase FLT3 (Homo sapiens) (UniProt P36888). In words: Inhibition of FLT3 (unknown origin) at 1 uM relative to control.
For series [21], the target named is Dual specificity tyrosine-phosphorylation-regulated kinase 2 (Homo sapiens) (UniProt Q92630). Description: Inhibition of DYRK2 (unknown origin) at 1 uM relative to control.
Series [22] addresses Vascular endothelial growth factor receptor 3 (Homo sapiens) (UniProt P35916). In words: Inhibition of FLT4 (unknown origin) at 1 uM relative to control.
Series [23] concerns the target MAP kinase-interacting serine/threonine-protein kinase 1 (Homo sapiens, UniProt Q9BUB5).
In series [24] the target is Tyrosine-protein kinase Fgr (Homo sapiens) (UniProt P09769). Description: Inhibition of FGR (unknown origin) at 1 uM relative to control.
The target of series [25] is MAP kinase-activated protein kinase 3 (Homo sapiens) (UniProt Q16644). Description: Inhibition of MAPKAPK3 (unknown origin) at 1 uM relative to control.
The nature of series [26]: Oral bioavailability in cynomolgus monkey at 3 mg/kg by LC-ESI-TOF/MS or LC-ESI-MS/MS method. The series is classed as ADME, organism-based, Macaca fascicularis. The settings on record: in vivo.
Series [27] has as its target Platelet-derived growth factor receptor alpha (Homo sapiens) (UniProt P16234). In words: Inhibition of PDGFRA (unknown origin) at 1 uM relative to control.

The inhibition is how much of the control response was suppressed. For orientation: bioavailability means dose-corrected exposure relative to a reference, in per cent. The logP is the decadic logarithm of the partition coefficient of the neutral form, usually between octanol and water. Usually Papp A→B stands for how fast a substance crosses the layer from the apical side. In general, IC50 refers to the concentration that inhibits the measured activity by half.

Sequence of Leucine-rich repeat serine/threonine-protein kinase 2 (Homo sapiens) (Q5S007 whole entry): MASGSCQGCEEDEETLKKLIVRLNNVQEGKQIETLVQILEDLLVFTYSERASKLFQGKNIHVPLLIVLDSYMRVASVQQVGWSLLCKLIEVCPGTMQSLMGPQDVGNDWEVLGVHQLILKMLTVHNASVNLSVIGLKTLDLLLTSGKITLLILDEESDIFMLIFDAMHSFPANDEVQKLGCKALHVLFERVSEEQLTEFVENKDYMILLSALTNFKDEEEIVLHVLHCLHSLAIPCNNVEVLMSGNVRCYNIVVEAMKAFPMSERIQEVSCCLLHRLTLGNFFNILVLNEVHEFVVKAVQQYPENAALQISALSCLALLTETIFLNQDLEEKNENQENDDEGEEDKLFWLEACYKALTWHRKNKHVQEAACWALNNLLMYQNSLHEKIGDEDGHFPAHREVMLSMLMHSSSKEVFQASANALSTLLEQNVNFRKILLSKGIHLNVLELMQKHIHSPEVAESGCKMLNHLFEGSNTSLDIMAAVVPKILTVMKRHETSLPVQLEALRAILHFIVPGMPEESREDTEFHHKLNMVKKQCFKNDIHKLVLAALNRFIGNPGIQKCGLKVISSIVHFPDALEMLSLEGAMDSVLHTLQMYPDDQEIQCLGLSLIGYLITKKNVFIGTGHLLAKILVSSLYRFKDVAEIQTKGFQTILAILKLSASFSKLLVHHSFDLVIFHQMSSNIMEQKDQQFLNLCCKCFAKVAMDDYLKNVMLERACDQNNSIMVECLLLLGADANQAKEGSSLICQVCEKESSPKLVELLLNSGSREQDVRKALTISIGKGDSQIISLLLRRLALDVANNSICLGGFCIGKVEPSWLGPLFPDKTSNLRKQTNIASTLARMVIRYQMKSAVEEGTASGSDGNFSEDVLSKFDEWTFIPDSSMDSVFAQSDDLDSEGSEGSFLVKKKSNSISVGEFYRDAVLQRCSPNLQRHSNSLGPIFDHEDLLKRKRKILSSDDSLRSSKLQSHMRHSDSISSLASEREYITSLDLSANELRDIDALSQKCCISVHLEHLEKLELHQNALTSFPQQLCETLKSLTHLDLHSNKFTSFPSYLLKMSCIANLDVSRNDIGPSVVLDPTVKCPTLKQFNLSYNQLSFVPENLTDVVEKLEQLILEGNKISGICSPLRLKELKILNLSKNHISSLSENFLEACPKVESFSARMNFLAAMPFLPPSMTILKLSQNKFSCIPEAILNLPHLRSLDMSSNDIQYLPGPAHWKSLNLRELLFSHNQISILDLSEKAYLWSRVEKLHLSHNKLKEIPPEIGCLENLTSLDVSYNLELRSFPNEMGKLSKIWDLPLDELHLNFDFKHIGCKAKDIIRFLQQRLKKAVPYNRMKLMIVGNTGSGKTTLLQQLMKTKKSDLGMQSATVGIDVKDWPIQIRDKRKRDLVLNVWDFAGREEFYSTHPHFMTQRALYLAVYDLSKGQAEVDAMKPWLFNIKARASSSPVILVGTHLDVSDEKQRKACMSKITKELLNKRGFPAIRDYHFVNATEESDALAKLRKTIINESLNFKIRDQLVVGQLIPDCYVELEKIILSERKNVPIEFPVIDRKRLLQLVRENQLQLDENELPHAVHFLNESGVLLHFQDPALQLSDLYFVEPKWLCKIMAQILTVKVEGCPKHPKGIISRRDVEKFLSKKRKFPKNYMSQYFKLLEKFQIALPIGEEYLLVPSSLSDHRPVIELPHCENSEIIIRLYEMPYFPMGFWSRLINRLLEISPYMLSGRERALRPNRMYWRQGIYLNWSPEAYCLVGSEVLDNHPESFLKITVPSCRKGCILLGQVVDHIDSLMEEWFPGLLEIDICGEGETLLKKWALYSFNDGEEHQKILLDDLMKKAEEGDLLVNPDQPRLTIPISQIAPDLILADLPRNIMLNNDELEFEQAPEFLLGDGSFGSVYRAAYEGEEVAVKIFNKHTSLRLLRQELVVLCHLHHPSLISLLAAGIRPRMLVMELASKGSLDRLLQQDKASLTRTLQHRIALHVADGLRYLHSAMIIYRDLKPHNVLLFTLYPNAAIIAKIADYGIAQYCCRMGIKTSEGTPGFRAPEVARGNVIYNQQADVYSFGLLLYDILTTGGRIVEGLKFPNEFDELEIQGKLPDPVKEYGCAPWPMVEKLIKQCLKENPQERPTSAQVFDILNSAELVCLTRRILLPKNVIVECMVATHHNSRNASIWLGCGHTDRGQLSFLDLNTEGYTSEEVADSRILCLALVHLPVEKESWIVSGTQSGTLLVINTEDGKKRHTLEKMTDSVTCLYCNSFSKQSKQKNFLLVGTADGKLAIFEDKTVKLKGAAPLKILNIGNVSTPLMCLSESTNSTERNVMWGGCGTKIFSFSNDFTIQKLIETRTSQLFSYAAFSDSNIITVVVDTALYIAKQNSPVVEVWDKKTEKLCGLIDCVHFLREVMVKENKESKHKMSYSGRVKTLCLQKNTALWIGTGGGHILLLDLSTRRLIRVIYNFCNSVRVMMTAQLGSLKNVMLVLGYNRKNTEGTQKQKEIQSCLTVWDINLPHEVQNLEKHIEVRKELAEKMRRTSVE
Sequence of Vascular endothelial growth factor receptor 2 (Homo sapiens) (P35968 whole entry): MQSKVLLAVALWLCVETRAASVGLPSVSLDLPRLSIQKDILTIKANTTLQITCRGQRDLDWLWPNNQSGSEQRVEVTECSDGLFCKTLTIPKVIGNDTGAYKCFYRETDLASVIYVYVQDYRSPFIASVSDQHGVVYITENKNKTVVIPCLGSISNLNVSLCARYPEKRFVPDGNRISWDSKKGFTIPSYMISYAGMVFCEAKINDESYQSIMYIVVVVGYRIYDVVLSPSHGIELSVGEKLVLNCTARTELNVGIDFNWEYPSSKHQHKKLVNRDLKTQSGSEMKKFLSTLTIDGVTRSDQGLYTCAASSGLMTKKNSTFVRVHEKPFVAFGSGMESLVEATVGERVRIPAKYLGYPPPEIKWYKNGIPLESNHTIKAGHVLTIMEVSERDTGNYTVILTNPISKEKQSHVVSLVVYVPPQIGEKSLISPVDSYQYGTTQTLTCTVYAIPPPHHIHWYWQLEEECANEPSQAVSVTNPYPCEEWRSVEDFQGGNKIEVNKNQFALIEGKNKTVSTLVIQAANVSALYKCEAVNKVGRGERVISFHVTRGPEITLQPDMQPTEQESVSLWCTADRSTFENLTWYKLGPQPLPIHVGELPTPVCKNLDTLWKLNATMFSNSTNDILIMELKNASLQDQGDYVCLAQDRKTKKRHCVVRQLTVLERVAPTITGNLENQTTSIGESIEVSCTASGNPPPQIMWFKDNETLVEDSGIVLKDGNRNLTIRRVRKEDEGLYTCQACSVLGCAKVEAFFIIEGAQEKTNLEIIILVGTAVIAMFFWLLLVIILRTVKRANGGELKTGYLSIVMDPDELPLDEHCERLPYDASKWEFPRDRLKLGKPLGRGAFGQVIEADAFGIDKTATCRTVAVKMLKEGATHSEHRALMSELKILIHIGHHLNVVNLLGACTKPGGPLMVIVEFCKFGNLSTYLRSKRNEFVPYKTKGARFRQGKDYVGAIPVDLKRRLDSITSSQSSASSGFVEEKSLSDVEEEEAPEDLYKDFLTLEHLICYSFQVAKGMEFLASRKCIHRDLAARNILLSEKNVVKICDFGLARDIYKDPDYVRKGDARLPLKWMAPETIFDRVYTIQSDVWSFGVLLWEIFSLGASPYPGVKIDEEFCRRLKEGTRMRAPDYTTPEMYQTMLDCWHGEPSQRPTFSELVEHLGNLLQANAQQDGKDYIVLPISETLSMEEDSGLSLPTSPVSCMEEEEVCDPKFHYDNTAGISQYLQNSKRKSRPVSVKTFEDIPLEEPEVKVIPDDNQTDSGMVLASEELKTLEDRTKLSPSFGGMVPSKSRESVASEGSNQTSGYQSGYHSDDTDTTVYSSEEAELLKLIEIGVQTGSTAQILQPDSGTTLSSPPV

Consider `Nc1cc(Nc2cc(Cl)c3n(c2=O)C2(CCCCC2)NC3=O)ncn1`, for which the inhibition came out at 59% in [1]; 82% in series [3]; 55% in series [8]; 55% in series [9]; 75% in [10]; 56% in series [11]. Besides, the inhibition in series [12] was 57%; in series [14], 96%; in series [15], 59%; in series [17], 71%. The remaining at 0.5 h, 1 µM in series [2] came out at 73%; in [5] it was 89%; in [13] it was 69%. The bioavailability was 50% in series [4], 58% in series [6], 28% in series [7] and > 100% in series [16]. The compound further gave a log partition coefficient (logP) in the series “physchem” of 3.2. Also, in “in vitro”, the Papp A→B at 2 h, 5 µM amounted to 4.2 ×10⁻⁶ cm/s.
Take `Nc1cc(Nc2cc(Cl)c3n(c2=O)C2(CCCC2)NC3=O)ncn1`: the inhibition in series [18] came out at 58%; in series [20], 55%; in series [3] it was 82%; in series [21], 81%; in series [8], 58%; in [9], 87%. Also, the inhibition in series [10] came to 75%; in series [11], 67%; in series [12], 74%; in series [22], 89%; in series [14] it was 95%; in series [24], 60%. Also, the inhibition was 52% in series [15], 54% in series [25], 55% in series [27] and 96% in series [17]. Also, the bioavailability in series [19] is > 100%; in series [6], 80%; in [7], 69%; in series [26], 51%. The remaining at 0.5 h, 1 µM was 71% in [2], 85% in series [5] and 73% in series [13]. This compound had a logP in “physchem” of 2.4. The apparent permeability from apical to basolateral (Papp A→B) at 2 h, 5 µM in the series “in vitro” stood at 1.2 ×10⁻⁶ cm/s. In [23], this compound registered an IC50 of 0.88 nM.

Values taken from ChEMBL document CHEMBL4043290, “Structure-based Design of Pyridone-Aminal eFT508 Targeting Dysregulated Translation by Selective Mitogen-activated Protein Kinase Interacting Kinases 1 and 2 (MNK1/2) Inhibition” (J Med Chem, 2018).
